In patent US20260125375A1 (Pfizer Inc., priority 2022, published 2026):
Like-named read-outs stand apart in the source and are kept apart here.

Columns and labels:
CBL-B (residues 36-427) = molecular target: T1, CBL-B (residues 36-427) (Homo sapiens, UniProt Q13191); assay: Ligand Displacement Assay (LDA), HTRF competitive binding against BODIPY-labeled fluorescent tracer, CBL-B; conditions: geometric mean of the number of tests, read-out: CBL-B Ki (nM) GMean
T1 construct: Purified CBL-B (residues 36-427) and C-CBL (residues 46-435) proteins from baculovirus-infected insect cells; made in house; host or cells: baculovirus-infected insect cells
Method in brief: (§1)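 Ki values, given as geometric means of repeated tests, come from TR-FRET displacement of a BODIPY-labelled tracer from terbium-streptavidin-bound, AviTag-biotinylated protein made in baculovirus-infected insect cells. Compounds ran as three-fold dilutions in duplicate, […], 2% DMSO.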

C-CBL (residues 46-435) = molecular target: T2, C-CBL (residues 46-435) (Homo sapiens, UniProt P22681); assay: Ligand Displacement Assay (LDA), HTRF competitive binding against BODIPY-labeled fluorescent tracer, C-CBL; conditions: geometric mean of the number of tests, read-out: C-CBL Ki (nM) GMean
T2 construct: Purified CBL-B (residues 36-427) and C-CBL (residues 46-435) proteins from baculovirus-infected insect cells; made in house; host or cells: baculovirus-infected insect cells
T2 sequence (P22681 46-435): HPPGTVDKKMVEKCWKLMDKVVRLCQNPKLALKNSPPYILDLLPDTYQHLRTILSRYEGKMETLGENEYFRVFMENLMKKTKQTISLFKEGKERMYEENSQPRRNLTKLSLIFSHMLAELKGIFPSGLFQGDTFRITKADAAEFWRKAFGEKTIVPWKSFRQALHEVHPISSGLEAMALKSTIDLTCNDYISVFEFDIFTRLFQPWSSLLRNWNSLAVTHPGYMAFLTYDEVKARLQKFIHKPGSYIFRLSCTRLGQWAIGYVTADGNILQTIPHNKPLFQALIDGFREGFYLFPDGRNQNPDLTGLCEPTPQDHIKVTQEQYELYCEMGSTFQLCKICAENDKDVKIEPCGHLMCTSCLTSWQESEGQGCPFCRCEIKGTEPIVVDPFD
Method in brief: as §1

CBL-B = molecular target: T3, CBL-B (Homo sapiens, UniProt Q13191); assay: Jurkat HiBit-IL2 assay (c-CBL KO), reporter cell line expressing CBL-B only; type: cell-based; conditions: geometric mean, read-out: C-CBL KO EC50 (nM) GMean
T3 construct: endogenous in cells; host or cells: Jurkat HiBit-IL2 reporter cells, C-CBL knocked out by CRISPR
Method in brief: (§2)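 IL-2 secretion was measured by HiBiT luminescence after 1 h compound exposure (0.1% DMSO) and 4 h TCR/CD28 stimulation (final anti-CD3 1 μg/ml, anti-CD28 2 μg/ml, 37 °C) of Jurkat reporters lacking c-CBL or CBL-B. EC50 came from fold-of-effect versus stimulated-only cells, as geometric means across tests.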

C-CBL = molecular target: T4, C-CBL (Homo sapiens, UniProt P22681); assay: Jurkat HiBit-IL2 assay (CBL-B KO), reporter cell line expressing C-CBL only; type: cell-based; conditions: geometric mean, read-out: CBL-B KO EC50 (nM) GMean
T4 construct: endogenous in cells; host or cells: Jurkat HiBit-IL2 reporter cells, CBL-B knocked out by CRISPR
Method in brief: as §2

[1] = C-CBL KO (expressing CBL-B only), Table 16b (further repetition)
[2] = c-CBL KO (CBL-B only), anti-CD3/anti-CD28 stimulation 4 hours, Table 16a
[3] = CBL-B KO (C-CBL only), anti-CD3/anti-CD28 stimulation 4 hours, Table 16a
[4] = CBL-B KO (expressing C-CBL only), Table 16b (further repetition)

Row | SMILES | Ki (CBL-B (residues 36-427)) | Ki (C-CBL (residues 46-435)) | EC50 (CBL-B; [1]) | EC50 (CBL-B; [2]) | EC50 (C-CBL; [3]) | EC50 (C-CBL; [4])
1 | CC(NC(=O)CO)c1nc(C(F)(F)F)cc2c(-c3cccc([C@H](c4nncn4C)C4CCC4)c3)n[nH]c12 (single isomer, unassigned) [Example I1] | 0.8 nM | 1.9 nM | 29 nM | 16 nM | 182 nM | 163 nM
2 | CC(NC(=O)CO)c1nc(C(F)(F)F)cc2c(-c3cccc([C@H](c4nncn4C)C4CCC4)c3)n[nH]c12 (single isomer, unassigned) [Example I2] | 7.8 nM | 64.5 nM |  | 313 nM | 2420 nM | 
3 | CC(NC[C@H](C)O)c1nc(C(F)(F)F)cc2c(-c3cccc([C@H](c4nncn4C)C4CCCCC4)c3)n[nH]c12 (single isomer, unassigned) [Example C99] | 3.1 nM | 13.8 nM | 44 nM |  |  | 323 nM
4 | C[C@H](c1nc(C(F)(F)F)cc2c(-c3cccc([C@H](c4nncn4C)C4CCC4)c3)n[nH]c12)N1CC[C@H]1CO (single isomer, unassigned) [Example D65] | 13.7 nM | 110 nM | 468 nM |  |  | 1180 nM
5 | C[C@@H](N[C@@H]1CC[C@H]1O)c1nc(C(F)(F)F)cc2c(-c3cccc([C@H](c4nncn4C)C4CCC4)c3)n[nH]c12 (single isomer, unassigned) [Example D24] | 2.2 nM | 22.3 nM | 58 nM | 22 nM | 285 nM | 452 nM
6 | CC(O)CNC(C)c1nc(C2CC2)cc2c(-c3cccc(C(c4nncn4C)C4CCC4)c3)n[nH]c12 (single isomer, unassigned) [Example H1] | 4.3 nM | 48.4 nM | 103 nM | 44 nM | 559 nM | 485 nM
7 | C[C@@H](N[C@@H]1COC[C@@H]1O)c1nc(C(F)(F)F)cc2c(-c3cccc([C@H](c4nncn4C)C4CCC4)c3)n[nH]c12 (single isomer, unassigned) [Example D56] | 6.2 nM | 62.3 nM | 84 nM |  |  | 365 nM
8 | C[C@H](N[C@@H]1CC[C@H](O)C1)c1nc(C(F)(F)F)cc2c(-c3cccc([C@H](c4nncn4C)C4CCC4)c3)n[nH]c12 [Example C49, (1S,3R)-3-({(1S)-1-[3-{3-[(R)-cyclobutyl(4-methyl-4H-1,2,4-triazol-3-yl)methyl]phenyl}-5-(trifluoromethyl)-1H-pyrazolo[3,4-c]pyridin-7-yl]ethyl}amino)cyclopentanol] | 2.1 nM | 20.9 nM |  | 8 nM | 135 nM | 
9 | C[C@@H](O)CN[C@H](C)c1nc(C(F)(F)F)cc2c(-c3cccc([C@H](c4nncn4C)C4CCC4)c3)n[nH]c12 (single isomer, unassigned) [Example D26] | 1.8 nM | 14 nM | 30 nM | 9 nM | 122 nM | 180 nM
10 | C[C@@H](c1nc(C(F)(F)F)cc2c(-c3cccc([C@H](c4nncn4C)C4CCC4)c3)n[nH]c12)N1CC[C@H](O)C1 (single isomer, unassigned) [Example D71] | 1.3 nM | 13 nM | 77 nM |  |  | 434 nM
11 | CC(NC(=O)[C@@H](C)O)c1nc(C(F)(F)F)cc2c(-c3cccc([C@H](c4nncn4C)C4CCC4)c3)n[nH]c12 (single isomer, unassigned) [Example I5] | 2.7 nM | 22.9 nM | 62 nM |  |  | 299 nM
12 | C[C@@H](c1nc(C(F)(F)F)cc2c(-c3cccc([C@H](c4nncn4C)C4CCC4)c3)n[nH]c12)N1CC[C@H]1CO (single isomer, unassigned) [Example D64] | 8.7 nM | 58 nM | 134 nM |  |  | 483 nM
13 | C[C@H](O)C(=O)N[C@@H](C)c1nc(C(F)(F)F)cc2c(-c3cccc([C@H](c4nncn4C)C4CCC4)c3)n[nH]c12 (single isomer, unassigned) [Example I3] | 0.8 nM | 0.7 nM | 6 nM | 3 nM | 17 nM | 15 nM
14 | C[C@H](NC1CCC1)c1nc(C(F)(F)F)cc2c(-c3cccc([C@H](c4nncn4C)C4COC4)c3)n[nH]c12 (single isomer, unassigned) [Example C123, N-{(1ξ)-1-[3-{3-[(ξ)-(4-methyl-4H-1,2,4-triazol-3-yl)(oxetan-3-yl)methyl]phenyl}-5-(trifluoromethyl)-1H-pyrazolo[3,4-c]pyridin-7-yl]ethyl}cyclobutanamine] | 19.5 nM | 189 nM | 185 nM |  |  | 1070 nM
15 | C[C@H](N[C@H]1CC[C@@H]1O)c1nc(C(F)(F)F)cc2c(-c3cccc([C@H](c4nncn4C)C4CCC4)c3)n[nH]c12 (single isomer, unassigned) [Example D21] | 5.4 nM | 68.1 nM | 107 nM | 39 nM | 420 nM | 1150 nM
16 | CC(C)[C@H]1CNCCN1Cc1nc(C(F)(F)F)cc2c(-c3cccc([C@H](c4nncn4C)C4CCC4)c3)n[nH]c12 [Example D36] | 1.4 nM | 16.4 nM | 52 nM |  |  | 454 nM
17 | CC(NC[C@H](C)O)c1nc(C(F)(F)F)cc2c(-c3cccc([C@H](c4nncn4C)C4CCCCC4)c3)n[nH]c12 (single isomer, unassigned) [Example C100] | 2.8 nM | 40.4 nM | 110 nM |  |  | 1410 nM
18 | C[C@H](c1nc(C(F)(F)F)cc2c(-c3cccc([C@H](c4nncn4C)C4CCC4)c3)n[nH]c12)N1CC(C)(O)C1 (single isomer, unassigned) [Example D67] | 10.9 nM | 78.5 nM | 321 nM |  |  | 1520 nM
